US7396682B2, “Method for cell adhesion and wound healing” (Regen Biotech, Inc., priority 2000, dated 2008)

Key:
HCE cells [1] = assay: Divalent cation sensitivity of βig-h3-mediated adhesion; assay type: cell-based, human; conditions: cells incubated 30 min with divalent cations in HBS
Experimental: To analyze the divalent cation sensitivity of βig-h3-mediated adhesion, cells were suspended in HEPES-buffered saline (HBS) (150 mM NaCl, 25 mM HEPES, 2 mM EDTA, pH 7.4) at a density of 2×10^5 cells/ml and incubated at 37° C. for 30 min. Then, they were washed twice in HBS and resuspended in the same buffer. Aliquots of cells (50 μl) were then added to the microculture plate wells and incubated for 30 min at 37° C. in a humidified atmosphere of 5% CO2 with 50 μl aliquots of HBS containing divalent cations (MnCl2, MgCl2 or CaCl2) at a concentration twice as large as the final concentration. Subsequently, they were plated on ligand-coated dishes to perform the adhesion assay.

K562 cells = assay: K562 cell adhesion to coated proteins (hexosaminidase analysis); assay type: cell-based; conditions: 1 hour
Experimental: For another control experiment, K562 cells, known to express α5, but not α3 integrin, were used. K562 cells were inoculated onto plates coated with βigh3-WT, fibronectin, laminin, or type I collagen and incubated for 1 hour, followed by the hexosaminidase analysis.

[2] = test system: dermal whole layer wounds on the backs of rats; assay: Wound healing with ointment bases on dermal whole layer wounds (2 cm) of rats; assay type: in vivo, rat; parameters: key to Formation grade of collagenous fibers at wound: 0: negative; 1+: insignificant; 2+: scatteringly formed; 3+: very dense; key to Re-ephithelialization of Wound (grade): 0: zero was set for the formation of no epithelial layers; 1+ for initiation of epithelialization; 2+ for incomplete epithelial layer structure; 3+ for complete epithelial layer structure; conditions: for wound area: ointment 100 μg/ml, 1 g per day, mean
Experimental: To compare wound healing activity between the recombinant βig-h3 protein His-β-b, which contains all of the four fas-1 domains, like native βig-h3 protein, and the recombinant βig-h3 protein βigh3-D-IV, which contains the 4th domain alone, ointment bases comprising the recombinant proteins were tested as follows.
Four dermal whole layer wounds, each 2 cm in diameter, were made on the backs of rats and divided into test groups 1-A, 1-B, 1-C and 1-D according to the ointment applied thereto.
1-A: coated at a dose of 1 gm per day with an ointment base combined with no materials.
1-B: coated at a dose of 1 gm per day with an ointment in which fibronectin was combined at a concentration of 100 μg/ml with a base.
1-C: coated at a dose of 1 g per day with an ointment in which Hisβ-b protein was combined at a concentration of 100 μg/ml with a base.
1-D: coated at a dose of 1 g per day with an ointment in which βigh3-D-IV protein was combined at a concentration of 100 μg/ml with a base.
The backs of etherized rats were shaved, followed by sterilizing the shaved region with betadin solution. In test group 1, the back of each rat was cut by use of a No. 15 surgical blade to form four circular wounds with a diameter of 2 cm penetrating the whole dermal layers. Ointments for test groups 1-A, 1-B, 1-C and 1-D were applied at an amount of about 1 g to the wounds which were then covered with a synthetic dressing (Tegaderm® 3M) and lightly bandaged. Application of ointments was performed once every day.
With a base of an aqueous material (SamA base), each of the ointments contained, per 1 g, spermaceti 38 mg, stearyl alcohol 116 mg, polyethylglycol 38 mg, conc. glycerin 192 mg, ethanol 23 mg, […], ethyl paraoxybenzoate 0.87 mg, butyl paraoxybenzoate 0.12 mg, and purified water.
First, morphologies of wounds were observed. The same scale was positioned near each wound and pictures were taken at the same distance from each wound. Pictures were scanned in a computer and used to measure areas of the wounds with the aid of NIH image analysis system (Bio-Optics). To take the pictures, the muscle was completely relaxed by etherizing the rats. Measurements were performed once every other day until the 22nd day. For comparing test groups, the measured values were analyzed according to ANOVA test and Scheffer's test.
Histological analysis was conducted under an optical microscope. Biopsies of wound sites were taken at days 3, 7, 10, 14 and 20, and fixed in 10% formalin and solidified with paraffin. 6 μm slices of the samples were dyed with hematoxylin-eosin (H&E) and Masson's trichrome before observation under a microscope. Wound healing effects according to time of each test material were evaluated through re-epithelialization and formation of collagenous fibers. In the case of re-epithelialization, epithelial formation was semi-quantified in such a way that zero was set for the formation of no epithelial layers, 1+ for initiation of epithelialization, 2+ for incomplete epithelial layer structure, and 3+ for complete epithelial layer structure. Regarding comparison among test groups and differences according to time within each group, measured values were statistically analyzed using ANOVA test and Scheffe's test. As for collagenous fiber formation, it was graded as 1+ for insignificant formation of collagenous fibers as observed with trichrome dye, 2+ for scatteringly spaced collagenous fibers, and 3+ for dense collagenous fibers.

HCE cells [3] = assay: Inhibition assay of HCE cell adhesion using matrix peptides and reagents; assay type: cell-based, human; conditions: HCE cells preincubated 30 min with reagent; for inhibition of cell adhesion to fibronectin: dishes coated with 10 μg/ml fibronectin; for inhibition of cell adhesion to βig-h3: dishes coated with 10 μg/ml βig-h3
Experimental: In order to identify cell surface receptors involved in the cell adhesion activity of βig-h3 protein, an inhibition assay was performed using various reagents.
Initially, plastic culture dishes were coated with 10 μg/ml fibronectin, βigh3-WT or βigh3-ΔRGD. HCE cells were preincubated for 30 min in media containing 5 mM EDTA, 100 μg/ml βigh3-WT, 100 μg/ml βigh3-ΔRGD, 1 mM RGD, 1 mM RGE or 100 μg/ml fibronectin, or none of them, and then assayed for cell adhesion as in Example 1.

[4] = test system: circular dermal whole layer wounds on the back of each rat; assay: Wound healing with chitosan base composites on dermal whole layer wounds (7 mm) of rats; assay type: in vivo; conditions: chitosan base with 500 μg/ml protein, Mean ± S.D
Experimental: Adult Spraque-Dawley lineage rats with a body weight of 250-300 gm were raised with standard feedstuff at a constant temperature and humidity.
In test group 2, four circular dermal whole layer wounds were made on the back of each rat and coated with chitosan bases combined with materials of interest:
2-A: wound coated with chitosan base only
2-B: wound coated with chitosan base in combination with 500 μg/ml of fibronectin
2-E: wound coated with chitosan base in combination with 500 μg/ml of βig-h3 D-IV 3X protein
2-F: wound coated with chitosan base in combination with 500 μg/ml of βig-h3 D-IV 4X protein
The composites based on chitosan were prepared as follows. 1 g of water soluble chitosan (poly(1-4) 2-amino-2-deoxy-β-D-glucan) with a molecular weight of 600,000 Da was dissolved in 100 ml of sterile distilled water and the resulting 1% solution was dispensed in aliquot of 2 ml to 12-well plate (Corning, USA), followed by the addition of 100 μg of gentamycin per well. Fibronectin, βigh3-D-IV 3X, and βigh3-D-IV 4X were individually added to a concentration of 500 μg/ml and frozen at −70° C., followed by freeze-drying in a freeze drier (Ilshin) for 12 hours to give disc-shaped composites.
The backs of etherized rats were shaved, followed by sterilizing the shaved region with betadin solution. Penetrating the whole dermal layers, four circular wounds with a diameter of 7 mm were formed on the back of each rat. The wounds were covered with composites used for test groups 2-A, 2-B, 2-E and 2-F, respectively, and then with Tegaderm® (3M) and lightly bandaged. The composites were changed with fresh ones every three days.
Wound healing effects were evaluated by determining appearances of the wounds as in Example 4-2.

[5] = test system: Human corneal epithelial (HCE) cells; assay: HCE cell adhesion and spreading assay on protein-coated plates; assay type: cell-based; conditions: HCE cells on coated protein, 1 hour at 37° C.
Experimental: Human corneal epithelial (HCE) cells used in this assay were cultured in DMEM ([…], Gibco BRL) supplemented with 15% fetal bovine serum, Gentamicin (40 μg/ml), insulin (5 μg/ml), cholera toxin (0.1 μg/ml) and human epidermal growth factor (hEGF) at 37° C. in 5% CO2.
The cell adhesion assay was performed as follows. First, the recombinant βig-h3 proteins or other extracellular matrix proteins were let to adhere to the bottoms of 96-well microculture plates (Falcon) by incubation at 37° C. for 1 hour and blocked with PBS containing 0.2% BSA. The coated extracellular matrix proteins were human plasma vitronectin (Promega), purified human plasma fibronectin (pFN), chicken collagen types I and II (Chemicon International Inc.), bovine collagen types IV and VI (Chemicon), mouse laminin (Chemicon), and bovine serum albumin (BSA) (Sigma). Cells were trypsinized and suspended in the culture media at a density of 2×10^5 cells/ml. 0.1 ml of the cell suspension was added to each well of the plates coated with the recombinant proteins.
Following incubation at 37° C. for 1 hour, unattached cells were removed by rinsing with PBS. Attached cells were incubated for 1 hour at 37° C. in 50 mM citrate buffer, pH 5.0, containing 3.75 mM p-nitrophenol-N-acetyl 1-β-D-glycosaminide as a hexosaminidase substrate and 0.25% Triton X-100, followed by the addition of 50 mM glycine buffer, pH 10.4, containing 5 mM EDTA to block the enzyme activity. A measurement was made of absorbance at 405 nm in a Multiskan MCC/340 microplate reader.
To determine cell area as an index for cell adhesion activity, 4×10^4 cells were applied to substrates in 48-well culture plates. The attached cells were fixed weith 8% glutaraldehyde (Sigma) and then stained with 0.25% Crystal Violet (Sigma) in 20% methanol. Measurement of cell areas was performed by Image-Pro plus software (Media Cybernetics). Experiments were repeated in triplicate with 200 or 300 measurements per site for each experiment. Data is reported as the mean area at specific time points±standard error of mean.

[Ca+2].[Cl-].[Cl-] [Ca^2+, CaCl2]
promotion of cell adhesion to βig-h3 by divalent cations (HCE cells [1]): only marginally

Fibronectin: positive control; purified human plasma fibronectin in cell assays, purified from citrated rat plasma for wound tests
adhesion of K562 cells to coated protein (K562 cells): adhered | wound area ([2]; Day 0): 3.17 | wound area ([2]; Day 2): 2.38 cm² | Formation grade of collagenous fibers at wound ([2]; Day 3): 1+ | Re-ephithelialization of Wound (grade) ([2]; Day 3): 0 | wound area ([2]; Day 4): 2.01 | wound area ([2]; Day 6): 1.83 | Formation grade of collagenous fibers at wound ([2]; Day 7): 2+ | Re-ephithelialization of Wound (grade) ([2]; Day 7): 1+ | wound area ([2]; Day 8): 1.39 cm² | Formation grade of collagenous fibers at wound ([2]; Day 10): 2+ | Re-ephithelialization of Wound (grade) ([2]; Day 10): 1+ | wound area ([2]; Day 10): 1.26 cm² | wound area ([2]; Day 12): 0.54 | Formation grade of collagenous fibers at wound ([2]; Day 14): 3+ | Re-ephithelialization of Wound (grade) ([2]; Day 14): 2+ | wound area ([2]; Day 14): 0.39 | wound area ([2]; Day 16): 0.25 | wound area ([2]; Day 18): 0.16 | Formation grade of collagenous fibers at wound ([2]; Day 20): 3+ | Re-ephithelialization of Wound (grade) ([2]; Day 20): 3+ | wound area ([2]; Day 20): 0.12 | wound area ([2]; Day 22): 0.06 | reduction in wound area compared with ointment base alone ([2]; ointment application, p<0.05 versus group I-A): more quickly reduced | completion of re-epithelialization ([2]; optical microscope): 20 days | inhibition of cell adhesion to fibronectin (HCE cells [3]): significantly inhibited | inhibition of cell adhesion to βig-h3 (HCE cells [3]): partially inhibited | Remaining wound area ([4]; Day 0): 49.2 ± 0.5 mm^2 | Remaining wound area ([4]; Day 3): 24.1 ± 0.6^b mm^2 | Remaining wound area ([4]; Day 6): 12.9 ± 0.6^b mm^2 | Remaining wound area ([4]; Day 9): 9.7 ± 0.8^b mm^2 | Remaining wound area ([4]; Day 12): 3.2 ± 0.4^b mm^2 | Remaining wound area ([4]; Day 15): 0.8 ± 0.2^b mm^2

B1: βigh3-WT: wild-type human recombinant βig-h3 protein (SEQ ID NO: 22) (protein, UniProt Q15582 24-683, looked up)
Transforming growth …: GPAKSPYQLVLQHSRLRGRQHGPNVCAVQKVIGTNRKYFTNCKQWYQRKICGKSTVISYECCPGYEKVPGEKGCPAALPLSNLYETLGVVGSTTTQLYTDRTEKLRPEMEGPGSFTIFAPSNEAWASLPAEVLDSLVSNVNIELLNALRYHMVGRRVLTDELKHGMTLTSMYQNSNIQIHHYPNGIVTVNCARLLKADHHATNGVVHLIDKVISTITNNIQQIIEIEDTFETLRAAVAASGLNTMLEGNGQYTLLAPTNEAFEKIPSETLNRILGDPEALRDLLNNHILKSAMCAEAIVAGLSVETLEGTTLEVGCSGDMLTINGKAIISNKDILATNGVIHYIDELLIPDSAKTLFELAAESDVSTAIDLFRQAGLGNHLSGSERLTLLAPLNSVFKDGTPPIDAHTRNLLRNHIIKDQLASKYLYHGQTLETLGGKKLRVFVYRNSLCIENSCIAAHDKRGRYGTLFTMDRVLTPPMGTVMDVLKGDNRFSMLVAAIQSAGLTETLNREGVYTVFAPTNEAFRALPPRERSRLLGDAKELANILKYHIGDEILVSGGIGALVRLKSLQGDKLEVSLKNNVVSVNKEPVAEPDIMATNGVVHVITNVLQPPANRPQERGDELADSALEIFKQASAFSRASQRSVRLAPVYQKLLERMKH
adhesion of K562 cells to coated protein (K562 cells): did not adhere | inhibition of cell adhesion to fibronectin (HCE cells [3]): partially inhibited | inhibition of cell adhesion to βig-h3 (HCE cells [3]): significantly inhibited | cell adhesion and spreading activity (numbers and surface areas of attached HCE cells) [5]: clearly greater than those attached to albumin
